Data reported in US8410170B2, “Use of isothiocyanates compounds in treating prostatic diseases and skin cancer” (Wuxi JC Pharmaceutical Technology Co., Ltd., priority 2005, dated 2013).
Entries after “also recorded” stand apart in the source; their conditions may differ.

Tests used:
GSTP1 = assay: Western blot to detect GSTP1 protein in LNCaP cells; assay type: cell-based, human; conditions: LNCaP cells exposed 24 hrs
Description: Western blot to detect GSTP1 protein (FIG. 1): […] The cells were harvested, washed and total cellular proteins were extracted as described previously (Wang, […], et al. […] Cancer Res 61(20): 7544-51, 2001). Fifty μg cellular extracts were separated on a SDS-PAGE, electro-transferred to nitrocellulose filters, and immunoblotted initially with antibodies against GSTP1. The same membranes were stripped and re-probed with β-actin for loading control. The result was recorded by ECL films.

androgen-induced BPH = assay: Therapeutic effects on BPH: Test Two (castrated rats, testosterone propionate; weights and histopathology); assay type: in vivo, SD rats
Description: Thirty-six male SD rats were randomly divided into 4 groups, nine each. Group 1 was served as blank control group (pseudo-surgery control group) in which animals were under the same surgical procedures except no testis was sectioned and fed normally. Groups from 2 to 4 were served as treatment groups in which all animals were anesthetized using ketamine and castrated by removing both testises under sterile conditions. After the surgery, the penicillin was injected to prevent the animals from infection. One week later, the testosterone propionate was injected subcutaneously at dose of 5 mg/kg, once a day for a month. […] Group 3 was served as positive control group in which animals were given Proscar by gavage at dose of 0.1 mg/rat/day for a month beginning on the same day that the testosterone propionate was injected.
Twenty-four hrs after the last dose, the animals were euthanized and weighed. Volume and weight of prostate were measured. The averages of prostate volume/weight and organ coefficient (average weight of prostate/average of body weight) were calculated, and statistical analysis performed (t test).
Prostate tissues of animals from different groups were embedded with paraffin. The tissue sections were stained with H&E for histpathological examination by an anatomical pathologist.

B16 mouse melanoma cells = assay: MTT cell growth inhibition, B16 melanoma; assay type: cell-based
Description: B16 mouse melanoma cells at exponential growth phase were digested by 0.25% trypsin, adjusted to the density of 3˜5×10^4/mL by adding the above working RPMI 1640 medium, sed into 96-well dishes at 150 μl per well, under normal culture conditions mentioned above. […] Equal volume of the working RPMI 1640 medium was added into the wells of the control group. Each group had four wells. After incubation, discarded the supernatant, added 150 μl D-Hanks per well, washed, discarded the supernatant. After adding 100 μl MTT (0.5 mg/mL), incubated for another 4 hrs. Discarded the supernatant, added 150 μl DMSO, kept at 37° C. for 10 mins. Absorbance was measured at wavelength of 570 nm.

[1] = In vitro dissolution (paddle method, HPLC); assay type: physicochemical; conditions: 500 ml water, 37° C., 45 min, paddle 200 r/min
Description: Dissolution Measurement: Dissolution rates of the compositions were measured according to the procedures described in the Chinese Pharmacopeia 2005, Appendix XC, Method 2: Paddle Determination. Briefly, samples are added into 500 ml of de-aired, and deionized water which is kept at 37±0.5° C. for 45 min while the paddle rotates at 200 r/min. Take samples and let the sample be passed through the 0.8 μm filter membrane, and analyzed by HPLC. The dissolution rate was then calculated.

Sp1 = assay: Western blot to detect Sp1 in LNCaP cells; assay type: cell-based, human; conditions: 24 hrs
Description: (§1) The cells were harvested, washed and total cellular proteins were extracted as described previously (as Example 2). Fifty μg proteins were then subjected to electrophoresis in SDS-PAGE, electro-transferred to nitrocellulose filters, and immunoblotted initially with antibodies against AR, Sp1, and PSA. The same membranes were stripped and re-probed with β-actin for loading control. The result was recorded by ECL films.

[2] = system: human prostate cancer cell line LNCaP; assay: MTT and SRB cell growth assay, LNCaP; assay type: cell-based
Description: MTT and SRB method as described in the reference (Kreis, Budman et al. 1997). Briefly, human prostate cancer cells grown exponentially were aliquoted into 96-well plates at a density of 5000 cells/200 μl per well. Twenty-four hrs after the incubation, the cells were exposed for three or seven days to serial dilutions of indicated isothiocyanate. After the incubation, 100 μl of the medium was removed from each of the wells and 50 μl solution of 3-(4,5-dimethyl-thiazol-2-yl)-2,5-diphenyltetrazolium bromide (MTT) was added, the cells were incubated for an additional 4 hrs and then 200 μl of 0.04 N HCl-isopropanol was added to each well to dissolve the black formazan precipitates. The absorbance was measured at wavelength 540 nm. For SRB method, remove the medium after 72 hrs. The cells on 96-well dishes were fixed with 10% trichloride acetic acid for 1 hr, air-dried for 24 hrs. The cells were then stained with 50 μl of SRB (sulforhodamine B) for […]. After extensive washes with 1% acetic acid for 5 times, air-dried, the purple protein-SRB complex was dissolved in 200 μl 10 mM Tris-HCl buffer (pH 10.0), and the absorbance was measured at the wavelength of 540 and 630 nm. The percent of cell survival (T/C%) were calculated based on the results of test groups to that of the control group. The semi-exponential curves of the percent of cell survival (T/C%) to the drug concentrations (FIG. 8) and IC50 were obtained by using Sigma-plot program.

PSA = assay: Western blot to detect PSA in LNCaP cells; assay type: cell-based, human; conditions: 24 hrs
Description: as §1

S=C=NCCc1ccccc1 [PEITC, phenethyl isothiocyanate]
expression of GSTP1 (Western blot) (GSTP1): significantly restored; also recorded: effectively induce
Average Body Weight (androgen-induced BPH; PEITC 2 mg/kg oral (Example 13-11), one month): 337 ± 23.7 g
Average Volume of Prostate (androgen-induced BPH; PEITC 2 mg/kg oral, one month): 1.42 ± 0.16 cm^3
Average Weight of Prostate (androgen-induced BPH; PEITC 2 mg/kg oral, one month): 1.20 ± 0.16 g
Inhibition of Organ Coefficient (androgen-induced BPH; PEITC 2 mg/kg oral, one month): 16.28%
Organ Coefficient (androgen-induced BPH; PEITC 2 mg/kg oral, one month): 0.36 ± 0.06%
Acinar Density: no. of animals with score 0 (androgen-induced BPH; PEITC 2 mg/kg, 9 animals): 7
Acinar Density: no. of animals with score + (androgen-induced BPH; PEITC 2 mg/kg, 9 animals): 2
Acinar Density: no. of animals with score ++ (androgen-induced BPH; PEITC 2 mg/kg, 9 animals): 0
Acinar Density: no. of animals with score +++ (androgen-induced BPH; PEITC 2 mg/kg, 9 animals): 0
Connective tissue proliferation, or papillary hyperplasia: no. of animals with score 0 (androgen-induced BPH; PEITC 2 mg/kg, 9 animals): 8
Connective tissue proliferation, or papillary hyperplasia: no. of animals with score + (androgen-induced BPH; PEITC 2 mg/kg, 9 animals): 1
Connective tissue proliferation, or papillary hyperplasia: no. of animals with score ++ (androgen-induced BPH; PEITC 2 mg/kg, 9 animals): 0
Connective tissue proliferation, or papillary hyperplasia: no. of animals with score +++ (androgen-induced BPH; PEITC 2 mg/kg, 9 animals): 0
Enlargement of Lumen of Gland: no. of animals with score 0 (androgen-induced BPH; PEITC 2 mg/kg, 9 animals): 3
Enlargement of Lumen of Gland: no. of animals with score + (androgen-induced BPH; PEITC 2 mg/kg, 9 animals): 6
Enlargement of Lumen of Gland: no. of animals with score ++ (androgen-induced BPH; PEITC 2 mg/kg, 9 animals): 0
Enlargement of Lumen of Gland: no. of animals with score +++ (androgen-induced BPH; PEITC 2 mg/kg, 9 animals): 0
Histopathological score of BPH, Average X ± SD (androgen-induced BPH; PEITC 2 mg/kg, 9 animals): 1.78 ± 1.09
Secretions of Gland: no. of animals with score 0 (androgen-induced BPH; PEITC 2 mg/kg, 9 animals): 3
Secretions of Gland: no. of animals with score + (androgen-induced BPH; PEITC 2 mg/kg, 9 animals): 5
Secretions of Gland: no. of animals with score ++ (androgen-induced BPH; PEITC 2 mg/kg, 9 animals): 1
Secretions of Gland: no. of animals with score +++ (androgen-induced BPH; PEITC 2 mg/kg, 9 animals): 0
lumen, secretary materials in the lumen and density of prostatic acinars, versus untreated BPH tissues (slide) (androgen-induced BPH; PEITC 2 mg/kg, FIG. 6.5): reduced
IC50 (B16 mouse melanoma cells; B16 mouse melanoma cell line): 10 to 20 µM
inhibition at 2.5 µM (B16 mouse melanoma cells; Mus musculus, B16, 48 h, 2.5 μmol/L, 48 h, B16): 14.5%
inhibition at 5 µM (B16 mouse melanoma cells; Mus musculus, B16, 48 h, 5.0 μmol/L, 48 h, B16): 27.9%
inhibition at 7.5 µM (B16 mouse melanoma cells; Mus musculus, B16, 48 h, 7.5 μmol/L, 48 h, B16): 36.7%
inhibition at 10 µM (B16 mouse melanoma cells; Mus musculus, B16, 48 h, 10.0 μmol/L, 48 h, B16): 49.2%
inhibition at 12.5 µM (B16 mouse melanoma cells; Mus musculus, B16, 48 h, 12.5 μmol/L, 48 h, B16): 58.4%
inhibition at 15 µM (B16 mouse melanoma cells; Mus musculus, B16, 48 h, 15.0 μmol/L, 48 h, B16): 63.7%
inhibition at 20 µM (B16 mouse melanoma cells; Mus musculus, B16, 48 h, 20.0 μmol/L, 48 h, B16): 77.3%
inhibition at 30 µM (B16 mouse melanoma cells; Mus musculus, B16, 48 h, 30.0 μmol/L, 48 h, B16): 89.6%
inhibition at 40 µM (B16 mouse melanoma cells; Mus musculus, B16, 48 h, 40.0 μmol/L, 48 h, B16): > 96%
Dissolution Rate [1]: 0%
expression of Sp1 (Western blot) (Sp1): significantly inhibited
Percent of Cell Survival (T/C %) ([2]; 0.0390 μM, LNCaP): 102.60%
Percent of Cell Survival (T/C %) ([2]; 0.0780 μM, LNCaP): 102.10%
Percent of Cell Survival (T/C %) ([2]; 0.1562 μM, LNCaP): 88.10%
Percent of Cell Survival (T/C %) ([2]; 0.3125 μM, LNCaP): 82.25%
Percent of Cell Survival (T/C %) ([2]; 0.6250 μM, LNCaP): 82.25%
Percent of Cell Survival (T/C %) ([2]; 1.2500 μM, LNCaP): 78.12%
Percent of Cell Survival (T/C %) ([2]; 2.5000 μM, LNCaP): 30.24%
Percent of Cell Survival (T/C %) ([2]; 5.0000 μM, LNCaP): 10.06%
Percent of Cell Survival (T/C %) ([2]; 10.0000 μM, LNCaP): 1.52%
Percent of Cell Survival (T/C %) ([2]; 20.0000 μM, LNCaP): 0.56%
IC50 ([2]; Homo sapiens, LNCaP, MTT and SRB, read-out: IC50, growth inhibition): 0.8 to 1.5 µM
inhibitory effect on growth of human prostate cancer cells stronger than B16 cells ([2]; LNCaP versus B16): 8-10 times
expression of PSA (Western blot) (PSA): significantly inhibited
